From patent US8778966B2, “Quinolinone derivatives as PARP and tank inhibitors” (Janssen Pharmaceutica, NV, priority 2007, dated 2014)
Where two headings read alike, the source gives them in different places.

How the values were obtained:
Human PARP-1 enzyme = target: T1, Human PARP-1 enzyme (Homo sapiens, UniProt P09874); assay: In vitro Scintillation Proximity Assay (SPA) for PARP-1 inhibitory activity; type: biochemical; conditions: read-out: in vitro SPA assay PARP-1 pIC50 (converted)
T1 construct: purchased Trevigen
Method in brief: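 SPA assay: nicked-DNA-activated PARP-1 (0.1–0.2 μg/ml) ADP-ribosylates biotinylated histones (2 μg/ml) using [3H]-NAD+, 20 min at RT in Tris pH 8/DTT/MgCl2, stopped with 2 mM NAD+. Blank-subtracted cpm expressed as % control; IC50 by linear interpolation, reported as pIC50 (10−5 to 3×10−9 M tested).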

HCT116 cells = assay: Antiproliferative activity, Alamar Blue assay, HCT116 cells; type: cell-based, human; set-up: key to HCT116 antiproliferative activity pIC50: pIC50 = -log IC50 (IC50: conc. reducing growth to 50% of control); conditions: for IC50: Homo sapiens, HCT-116, HCT116 cells, read-out: HCT116 antiproliferative activity pIC50 (converted)
Method in brief: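 HCT116 cells seeded, adhered 24 h, then exposed to compound for 4 days; Alamar Blue (resazurin) added for 4 h at 37 °C, fluorescence read at 540/590 nm. Viability as % of untreated control, triplicate wells; IC50 by probit analysis, reported as pIC50.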

PC-3 cells = assay: Antiproliferative activity, Alamar Blue assay, PC-3 cells; type: cell-based, human; conditions: for IC50: Homo sapiens, PC-3, PC3 cells, read-out: PC3 antiproliferative activity pIC50 (converted)
Method in brief: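 PC-3 cells seeded at 4.5×10^3 cells/ml, left to adhere 24 hr, then exposed to compound for 4 days. Resazurin (Alamar Blue) added for a further 24 hrs at 37° C; fluorescence read at 540/590 nm. Viability as % of untreated control, mean of 3 wells; IC50 by probit analysis, reported as pIC50.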

T1 sequence (P09874 whole entry): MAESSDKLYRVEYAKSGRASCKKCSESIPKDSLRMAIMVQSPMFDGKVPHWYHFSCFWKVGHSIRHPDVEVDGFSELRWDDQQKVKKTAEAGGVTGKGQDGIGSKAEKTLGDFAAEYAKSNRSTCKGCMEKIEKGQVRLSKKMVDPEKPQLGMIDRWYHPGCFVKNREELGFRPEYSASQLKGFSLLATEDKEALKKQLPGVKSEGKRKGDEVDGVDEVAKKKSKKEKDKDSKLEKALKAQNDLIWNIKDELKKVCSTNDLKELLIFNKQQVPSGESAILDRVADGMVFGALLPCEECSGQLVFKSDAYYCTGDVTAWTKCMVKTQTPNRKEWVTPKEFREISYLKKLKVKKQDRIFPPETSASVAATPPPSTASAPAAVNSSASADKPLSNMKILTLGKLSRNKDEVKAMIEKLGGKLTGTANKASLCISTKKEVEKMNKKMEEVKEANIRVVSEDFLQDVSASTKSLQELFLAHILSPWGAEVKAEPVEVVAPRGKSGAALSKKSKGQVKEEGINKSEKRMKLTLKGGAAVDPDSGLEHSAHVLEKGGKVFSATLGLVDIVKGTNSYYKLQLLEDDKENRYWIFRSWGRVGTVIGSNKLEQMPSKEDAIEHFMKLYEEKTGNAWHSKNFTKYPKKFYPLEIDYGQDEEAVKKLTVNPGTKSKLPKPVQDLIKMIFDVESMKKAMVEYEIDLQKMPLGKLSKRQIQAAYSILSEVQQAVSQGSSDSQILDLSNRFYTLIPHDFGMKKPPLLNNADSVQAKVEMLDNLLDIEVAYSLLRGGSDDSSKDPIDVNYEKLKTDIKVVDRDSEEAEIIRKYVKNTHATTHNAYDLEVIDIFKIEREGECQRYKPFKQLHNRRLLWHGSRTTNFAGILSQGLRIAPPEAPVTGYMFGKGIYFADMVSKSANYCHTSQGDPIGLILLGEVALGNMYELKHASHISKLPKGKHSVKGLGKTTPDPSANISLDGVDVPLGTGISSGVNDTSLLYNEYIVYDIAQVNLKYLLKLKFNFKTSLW

Row | SMILES | IC50 (Human PARP-1 enzyme) | IC50 (HCT116 cells) | IC50 (PC-3 cells) | HCT116 antiproliferative activity pIC50 (HCT116 cells; HCT116 cells) | PC3 antiproliferative activity pIC50 (PC-3 cells; PC3 cells) | IC50 (HCT116 cells; Alamar Blue) | IC50 (PC-3 cells; Alamar Blue)
1 | CCc1cc2ccc([C@](C)(C#N)Cc3ccccc3)cc2[nH]c1=O (single isomer, unassigned) [Compound 45] | 316 nM | > 10000 nM | > 10000 nM |  |  |  | 
2 | CCc1cc2ccc([C@@](C)(C#N)Cc3ccccc3)cc2[nH]c1=O (single isomer, unassigned) [Compound 46] | 316 nM | 158 nM | 398 nM |  |  |  | 
3 | CCc1cc2ccc(C(C)(C#N)CC3COc4ccccc4O3)cc2[nH]c1=O (single isomer, unassigned) [Compound 47] | 398 nM |  |  | <5 | <5 |  | 
4 | CCc1cc2ccc([C@](C)(C#N)Cc3nc(OC)cc(OC)n3)cc2[nH]c1=O (single isomer, unassigned) [Compound 52] | 200 nM |  |  |  |  | 5010 nM | 7940 nM
5 | CCc1cc2ccc([C@@](C)(C#N)Cc3nc(OC)cc(OC)n3)cc2[nH]c1=O (single isomer, unassigned) [Compound 53] | 50.1 nM |  |  |  |  | 39.8 nM | 39.8 nM
6 | CCc1cc2ccc(C(C)(C#N)Cc3cccc(C#C[Si](C)(C)C)c3)cc2[nH]c1=O (stereo not shown) [Compound 1] | 398 nM |  |  |  |  | 200 nM | 631 nM
7 | CCc1cc2ccc(C(C)(C#N)Cc3cccc(CN(C)C)c3)cc2[nH]c1=O (stereo not shown) [Compound 7] | 1000 nM | 2510 nM | 7940 nM |  |  |  | 
8 | CCc1cc2ccc(C(C)(C#N)Cc3cccc(COC)c3)cc2[nH]c1=O (stereo not shown) [Compound 8] | 501 nM | 631 nM | 631 nM |  |  |  | 
9 | CCc1cc2ccc(C(C)(C#N)Cc3cccc(CO)c3)cc2[nH]c1=O (stereo not shown) [Compound 9] | 200 nM | 251 nM | 631 nM |  |  |  | 
10 | CCc1cc2ccc(C(C#N)(Cc3ccccc3)CC3CC3)cc2[nH]c1=O (stereo not shown) [Compound 28] |  | > 10000 nM | > 10000 nM |  |  |  | 
11 | CC(C#N)(Cc1ccccc1)c1ccc2cc(CO)c(=O)[nH]c2c1 (stereo not shown) [Compound 40] | 2510 nM | 7940 nM | > 10000 nM |  |  |  | 
12 | CCc1cc2ccc(C(C)(C#N)Cc3c(F)ccc(C)c3F)cc2[nH]c1=O (stereo not shown) [Compound 41] | 1000 nM | 631 nM | 631 nM |  |  |  | 
13 | CCc1cc2ccc(C(C)(C#N)Cc3nnsc3Cl)cc2[nH]c1=O (stereo not shown) [Compound 42] | 200 nM | 158 nM | 316 nM |  |  |  | 
14 | CCc1cc2ccc(C(C)(C#N)Cc3nc(OC)cc(OC)n3)cc2[nH]c1=O (stereo not shown) [Compound 43] | 200 nM | 158 nM | 158 nM |  |  |  | 
15 | CCc1cc2ccc(C(C)(C#N)Cc3ccccc3)cc2[nH]c1=O (stereo not shown) [Compound 44] | 316 nM |  |  |  |  |  | 
16 | CCc1cc2ccc(C(C)(C#N)Cc3cccc(Br)c3)cc2[nH]c1=O (stereo not shown) [Compound 49] | 316 nM | 200 nM | 158 nM |  |  |  | 
17 | CCOP(=O)(OCC)c1cccc(CC(C)(C#N)c2ccc3cc(CC)c(=O)[nH]c3c2)c1 (stereo not shown) [Compound 50] | 2510 nM | 1260 nM | 794 nM |  |  |  | 
18 | CCc1cc2ccc(C(C)(C#N)Cc3cccc(C#N)c3)cc2[nH]c1=O (stereo not shown) [Compound 51] | 126 nM | 126 nM | 200 nM |  |  |  | 
19 | CCc1cc2ccc(C(C)(C#N)CCOc3ccc([N+](=O)[O-])cc3)cc2[nH]c1=O (stereo not shown) [Compound 54] | 158 nM | 501 nM | 794 nM |  |  |  | 
20 | CCc1cc2ccc(C(C)(C#N)Cc3cccc(CN4CCN(C)CC4)c3)cc2[nH]c1=O (stereo not shown) [Compound 57] | 3980 nM | > 10000 nM | > 10000 nM |  |  |  | 
21 | CCc1cc2ccc(C(C)(C#N)Cc3cccc(CN4CCOCC4)c3)cc2[nH]c1=O (stereo not shown) [Compound 58] | 501 nM | 501 nM | 2000 nM |  |  |  | 
22 | CCc1cc2ccc(C(C)(C#N)Cc3cccc(CNC)c3)cc2[nH]c1=O (stereo not shown) [Compound 59] | 631 nM | 3160 nM | 10000 nM |  |  |  | 
23 | CCc1cc2ccc(C(C)(C#N)Cc3cccc(CNCCOC)c3)cc2[nH]c1=O (stereo not shown) [Compound 60] | 794 nM | 6310 nM | 7940 nM |  |  |  | 
24 | CCc1cc2ccc(C(C)(C#N)Cc3cccc(CNCCN4CCOCC4)c3)cc2[nH]c1=O (stereo not shown) [Compound 61] | 1000 nM | > 10000 nM | > 10000 nM |  |  |  | 
25 | CCc1cc2ccc(C(C)(C#N)Cc3cccc(C(=O)NCCOC)c3)cc2[nH]c1=O (stereo not shown) [Compound 62] | 501 nM | 7940 nM | 7940 nM |  |  |  | 
26 | CCc1cc2ccc(C(C)(C#N)Cc3cccc(C(=O)N(C)C)c3)cc2[nH]c1=O (stereo not shown) [Compound 63] | 1000 nM | 1580 nM | 3160 nM |  |  |  | 

Row | SMILES | IC50 (Human PARP-1 enzyme) | IC50 (HCT116 cells) | IC50 (PC-3 cells) | HCT116 antiproliferative activity pIC50 (HCT116 cells; HCT116 cells) | PC3 antiproliferative activity pIC50 (PC-3 cells; PC3 cells) | IC50 (HCT116 cells; Alamar Blue) | IC50 (PC-3 cells; Alamar Blue)
27 | CCc1cc2ccc(C(C)(C#N)Cc3cccc(N4CCNCC4)c3)cc2[nH]c1=O (stereo not shown) [Compound 64] | 794 nM | > 10000 nM | > 10000 nM |  |  |  | 
28 | CCc1cc2ccc(C(C)(C#N)Cc3cccc(N4CCCCC4)c3)cc2[nH]c1=O (stereo not shown) [Compound 65] | 1260 nM |  |  |  |  |  | 
29 | CCc1cc2ccc(C(C)(C#N)Cc3cccc(N4CCN(C)CC4)c3)cc2[nH]c1=O (stereo not shown) [Compound 66] | 1260 nM | 5010 nM | 5010 nM |  |  |  | 
30 | CCc1cc2ccc(C(C)(C#N)Cc3cccc(OCC4CC4)c3)cc2[nH]c1=O (stereo not shown) [Compound 67] | 1000 nM | 1580 nM | 1260 nM |  |  |  | 
31 | CCc1cc2ccc(C(C)(C#N)Cc3cccc(OCCCN4CCOCC4)c3)cc2[nH]c1=O (stereo not shown) [Compound 68] | 1000 nM | 6310 nM | 7940 nM |  |  |  | 
32 | CCc1cc2ccc(C(C)(C#N)Cc3cccc(OCCCN4CCN(C)CC4)c3)cc2[nH]c1=O (stereo not shown) [Compound 69] | 794 nM | 7940 nM | 7940 nM |  |  |  | 
33 | Cc1cc2ccc(C(C)(C#N)Cc3noc(-c4cccc(C(F)(F)F)c4)n3)cc2[nH]c1=O (stereo not shown) [Compound 70] | 3980 nM | 631 nM | 2510 nM |  |  |  | 
34 | Cc1cc2ccc(C(C)(C#N)Cc3cc4ccccc4s3)cc2[nH]c1=O (stereo not shown) [Compound 71] | 3160 nM | 5010 nM | 2000 nM |  |  |  | 
35 | Cc1cc2ccc(C(C)(C#N)Cc3ccc(Cl)s3)cc2[nH]c1=O (stereo not shown) [Compound 72] | 1260 nM | 794 nM | 2000 nM |  |  |  | 
36 | Cc1cc2ccc(C(C)(C#N)Cc3ccc(C(F)(F)F)o3)cc2[nH]c1=O (stereo not shown) [Compound 73] | 2000 nM | 794 nM | 2000 nM |  |  |  | 
37 | Cc1cc2ccc(C(C)(C#N)Cc3cccc4cccnc34)cc2[nH]c1=O (stereo not shown) [Compound 74] | 1000 nM | 501 nM | 1000 nM |  |  |  | 
38 | Cc1cc2ccc(C(C)(C#N)Cc3nc4ccccc4s3)cc2[nH]c1=O (stereo not shown) [Compound 75] | 1260 nM | 126 nM | 200 nM |  |  |  | 
39 | Cc1cc2ccc(C(C)(C#N)Cc3ccccc3)cc2[nH]c1=O (stereo not shown) [Compound 76] | 1580 nM | 251 nM | 631 nM |  |  |  | 
40 | CCc1cc2ccc(C(C)(C#N)Cc3ccc(OC)c(C#N)c3)cc2[nH]c1=O (stereo not shown) [Compound 77] | 398 nM | 1000 nM | 1580 nM |  |  |  | 
41 | CCc1cc2ccc(C(C)(C#N)Cc3cc(C)ccc3C)cc2[nH]c1=O (stereo not shown) [Compound 78] | 1260 nM | 398 nM | 398 nM |  |  |  | 
42 | CCc1cc2ccc(C(C)(C#N)Cc3ccc(F)c(C)c3)cc2[nH]c1=O (stereo not shown) [Compound 79] | 794 nM | 794 nM | 794 nM |  |  |  | 
43 | CCc1cc2ccc(C(C)(C#N)Cc3cc(Cl)ccc3OC)cc2[nH]c1=O (stereo not shown) [Compound 80] | 1000 nM | 501 nM | 398 nM |  |  |  | 
44 | CCc1cc2ccc(C(C)(C#N)Cc3cccc(Br)c3C)cc2[nH]c1=O (stereo not shown) [Compound 81] | 1260 nM | 316 nM | 501 nM |  |  |  | 
45 | CCc1cc2ccc(C(C)(C#N)Cc3ccc(Cl)c(C(F)(F)F)c3)cc2[nH]c1=O (stereo not shown) [Compound 82] | 3980 nM | 316 nM | 631 nM |  |  |  | 
46 | CCc1cc2ccc(C(C)(C#N)Cc3ccc(C)c(F)c3F)cc2[nH]c1=O (stereo not shown) [Compound 83] | 631 nM | 1000 nM | 2000 nM |  |  |  | 
47 | CCc1cc2ccc(C(C)(C#N)Cc3c(C)cccc3C)cc2[nH]c1=O (stereo not shown) [Compound 84] | 1260 nM | 2000 nM | 3980 nM |  |  |  | 
48 | CCc1cc2ccc(C(C)(C#N)Cc3nc4ccccc4o3)cc2[nH]c1=O (stereo not shown) [Compound 85] | 126 nM | 316 nM | 1000 nM |  |  |  | 
49 | CCc1cc2ccc(C(C)(C#N)Cc3csc(C)n3)cc2[nH]c1=O (stereo not shown) [Compound 86] | 501 nM | 5010 nM | 6310 nM |  |  |  | 
50 | CCc1cc2ccc(C(C)(C#N)Cc3ccc4nccnc4c3)cc2[nH]c1=O (stereo not shown) [Compound 87] | 79.4 nM | 1000 nM | 1000 nM |  |  |  | 
51 | CCc1cc2ccc(C(C)(C#N)Cc3c(C)c(C)cc(C)c3C)cc2[nH]c1=O (stereo not shown) [Compound 88] | 1580 nM | > 10000 nM | 10000 nM |  |  |  | 
52 | CCc1cc2ccc(C(C)(C#N)Cc3c(C)c(C)c(C)c(C)c3C)cc2[nH]c1=O (stereo not shown) [Compound 89] | 1580 nM | > 10000 nM | > 10000 nM |  |  |  | 
